What was measured:
[1] = 272-patient Phase 2 clinical trial; Bhargava et al., 2009; cited from earlier work
[2] = system: preclinical models; conditions: Nakamura et al., 2006; cited from earlier work
[3] = system: murine breast tumors (BH archive); assay: tumor response to tivozanib, subcutaneously transplanted murine Her2-driven breast tumors (BH archive) in NCr nude mice; assay type: in vivo, mouse
Text: A population of more than 100 murine breast tumors (BH archive) was used to identify tumors that are sensitive to tivozanib (responders) and tumors that are resistant to tivozanib (non-responders). The BH archive was established by in vivo propagation and cryopreservation of primary tumor material from more than 100 spontaneous murine breast tumors derived from engineered chimeric mice that develop Her2-dependent, inducible spontaneous breast tumors. The mice were produced essentially as follows.
Tumor cells were isolated by physical disruption of the tumors using cell strainers. Typically 1×10^5 cells were mixed with matrigel (50:50 volume) and injected subcutaneously into female NCr nu/nu mice on upper dorsal region between the shoulder blades. When these tumors grew to approximately 500 mm^3, which typically required 2 to 4 weeks, they were collected for further propagation, drug response testing, and analysis. Analysis included microarray profiling, general histopathology, and IHC (CD31 for tumor vasculature, Ki67 for tumor cell proliferation).
Evaluation of tumor response to tivozanib was performed essentially as follows. Subcutaneously transplanted tumors were established by injecting physically disrupted tumor cells (mixed with Matrigel) into 7 week-old female NCr nude mice. When the tumors reached approximately 200-400 mm^3, 30 tumor-bearing mice were randomized into three groups. Group 1 received vehicle. Group 2 received tivozanib at 5 mg/kg daily by oral gavage. Group 3 received tivozanib at 20 mg/kg daily by oral gavage. Tumors were measured twice per week by a caliper, and tumor volume was calculated. At the end of the treatment, tumors were collected for histopathological analysis and IHC analysis.
Based on tumor growth inhibition and typical histopathological and IHC (CD31) characteristics for angiogenesis inhibition, responders and non-responders were identified. […]

[4] = target: VEGF receptor 3 (Homo sapiens, UniProt P35916); conditions: Nakamura et al., 2006; cited from earlier work
Sequence of VEGF receptor 3 (P35916 25-1363): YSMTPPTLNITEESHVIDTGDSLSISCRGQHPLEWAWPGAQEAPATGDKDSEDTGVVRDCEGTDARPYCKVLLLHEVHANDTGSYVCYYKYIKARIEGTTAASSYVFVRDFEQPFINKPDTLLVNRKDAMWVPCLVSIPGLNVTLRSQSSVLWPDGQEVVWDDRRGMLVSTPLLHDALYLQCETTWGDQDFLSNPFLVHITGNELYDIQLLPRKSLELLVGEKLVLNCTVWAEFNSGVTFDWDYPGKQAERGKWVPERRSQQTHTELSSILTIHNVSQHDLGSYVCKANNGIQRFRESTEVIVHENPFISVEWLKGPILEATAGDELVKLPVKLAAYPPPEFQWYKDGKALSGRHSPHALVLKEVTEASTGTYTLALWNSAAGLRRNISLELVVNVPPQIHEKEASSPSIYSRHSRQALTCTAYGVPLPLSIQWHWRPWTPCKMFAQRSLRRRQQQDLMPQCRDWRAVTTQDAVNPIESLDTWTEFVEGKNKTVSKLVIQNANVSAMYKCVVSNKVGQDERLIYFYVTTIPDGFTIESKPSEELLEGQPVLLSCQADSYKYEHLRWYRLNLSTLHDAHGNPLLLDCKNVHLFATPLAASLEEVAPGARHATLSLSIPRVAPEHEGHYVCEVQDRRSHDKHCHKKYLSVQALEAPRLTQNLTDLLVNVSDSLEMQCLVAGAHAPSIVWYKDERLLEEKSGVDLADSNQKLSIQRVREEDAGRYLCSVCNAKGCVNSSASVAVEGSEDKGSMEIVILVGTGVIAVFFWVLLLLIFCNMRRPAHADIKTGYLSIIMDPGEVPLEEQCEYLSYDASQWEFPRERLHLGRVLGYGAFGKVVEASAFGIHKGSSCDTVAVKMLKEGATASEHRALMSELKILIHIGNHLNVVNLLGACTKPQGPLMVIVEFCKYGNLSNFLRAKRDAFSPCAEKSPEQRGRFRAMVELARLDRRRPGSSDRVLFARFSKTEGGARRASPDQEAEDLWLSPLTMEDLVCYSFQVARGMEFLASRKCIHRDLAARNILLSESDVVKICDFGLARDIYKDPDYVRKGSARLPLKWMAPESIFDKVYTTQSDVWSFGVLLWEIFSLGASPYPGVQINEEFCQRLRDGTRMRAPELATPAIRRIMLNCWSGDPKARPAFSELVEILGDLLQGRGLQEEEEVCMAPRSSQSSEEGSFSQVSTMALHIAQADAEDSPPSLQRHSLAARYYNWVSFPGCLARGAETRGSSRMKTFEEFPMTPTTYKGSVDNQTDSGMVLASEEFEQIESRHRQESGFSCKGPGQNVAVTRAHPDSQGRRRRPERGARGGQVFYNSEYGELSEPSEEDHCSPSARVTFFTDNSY

Structure (SMILES): COc1cc2nccc(Oc3ccc(NC(=O)Nc4cc(C)on4)c(Cl)c3)c2cc1OC [Tivozanib, N-{2-chloro-4-[(6,7-dimethoxy-4-quinolyl)oxy]-phenyl}-N′-(5-methyl-3-isoxazolyl)urea]
- interim results [1]: positive interim results
- antitumor activity [2]: exhibits antitumor activity
- variation in response among tumors ([3]; 5 or 20 mg/kg daily by oral gavage, tumor growth inhibition, histopathology, IHC (CD31)): significant tumor-to-tumor variation in response
- tumor progression by caliper measurement ([3]; responder tumors, 5 mg/kg daily by oral gavage): no tumor progression
- tumor killing (by histology) ([3]; responder tumors, 5 mg/kg daily by oral gavage, except the peripheries): close to complete tumor killing
- inhibitory activity [4]: picomolar

— US7615353B1, “Tivozanib response prediction” (AVEO Pharmaceuticals, Inc., priority 2009, dated 2009)
